Experimental findings from patent US5998476A, “Synthetic polyunsaturated fatty acid analogues” (Peptide Technology Limited, priority 1994, dated 1999) are described below.

Assay [1] concerns chloroquine-resistant P. falciparum strain K. Kind of assay: Inhibition of chloroquine-resistant P. falciparum strain K (direct anti-malarial activity). It is filed as cell-based. The note with it: All PUFA at 11μm.
Assay [2] concerns peripheral blood mononuclear cells. The assay is described as follows: PHA-induced proliferation of peripheral blood mononuclear cells (thymidine incorporation). The note with it: Homo sapiens, PBMC, read-out: % INHIBITION OF PROLIFERATION
It is filed as cell-based. The method, then:
Mononuclear cells were separated from peripheral blood of normal human donors as described by Ferrante and Thong (1978 . . . ). The mononuclear cells were resuspended in RPMI-1640 containing 20% human AB serum and placed into 96 well microtrays (50 μl per well, cell density 4×10^6 cells/ml). Fatty acid was then added in 50 μl and pre-incubated with the cells for 30 min at 37° C. in 5% CO2. Mitogen (PHA, ConA, PWM. Staph, Aureus) was then added in 100 μl and the cells incubated for 66 hours at 37° C. in 5% CO2 before the addition of tritiated thymnidine (1 μCi/well). After a total of 72 h in culture, the cells were harvested and proliferation (thymidine incorporation) and supernatants assayed for the presence of cytokines.

Read-outs that look alike come from different tables or passages of the source.

In the case of `CCN(CC)CCCC(C)Nc1ccnc2cc(Cl)ccc12` (centres unmarked) [Chloroquine, reference compound], in assay [1], the “% INHIBITION of P. falciparum” value came out at 20.1%.

For the molecule `CCCCC/C=C\C/C=C\C/C=C\C/C=C\CCCC(=O)N[C@@H](CC(=O)O)C(=O)O` [arachidonic acid-aspartic acid-OH, Arachidonic-aspartic acid-OH], the inhibition at 20 µM in assay [2] was determined as 39.7%.

Consider `CCCCC/C=C\C/C=C\C/C=C\C/C=C\CCCC(=O)NCC(=O)O` [arachidonic acid-glycine-OH, Arachidonic Acid-Glycine-OH], for which the “% INHIBITION of P. falciparum” value in assay [1] amounted to 84.2%. Moreover, in assay [2], the inhibition at 20 µM was determined as 8%.

With `CC/C=C\C/C=C\C/C=C\C/C=C\C/C=C\C/C=C\CCC(=O)N[C@@H](CC(=O)O)C(=O)O` [docosahexaenoic acid-aspartic acid-OH, Docosahexaenoic Acid-Aspartic Acid-OH], the inhibition at 20 µM in assay [2] (All PUFA at 20μM, PHA-induced) came out at 21.1%.

Turning to `CC/C=C\C/C=C\C/C=C\C/C=C\C/C=C\C/C=C\CCC(=O)NCC(=O)O` [docosahexaenoic acid-glycine-OH, Docosahexaenoic acid-glycine-OH], the “% INHIBITION of P. falciparum” value in assay [1] worked out at 84.9%. Moreover, the inhibition at 20 µM in assay [2] (All PUFA at 20μM, PHA-induced) was 16.6%.

As for `CC/C=C\C/C=C\C/C=C\C/C=C\C/C=C\CCCC(=O)N[C@@H](CC(=O)O)C(=O)O` [eicosapentaenoic acid-aspartic acid-OH, Eicosapentaenoic acid-aspartic acid-OH], the inhibition at 20 µM in assay [2] (All PUFA at 20μM, PHA-induced) is 20.7%.

Turning to `CC/C=C\C/C=C\C/C=C\C/C=C\C/C=C\CCCC(=O)NCC(=O)O` [eicosapentaenoic acid-glycine-OH, Eicosapentaenoic acid-glycine-OH], the inhibition at 20 µM in assay [2] (All PUFA at 20μM, PHA-induced) amounted to 5.4%.

On to `CC/C=C\C/C=C\C/C=C\CCCCCCCC(=O)N[C@@H](CC(=O)O)C(=O)O` [α-linolenic acid-aspartic acid-OH, Linolenic Acid-Aspartic Acid-OH], for which the inhibition at 20 µM in assay [2] (All PUFA at 20μM, PHA-induced) turned out to be 15.4%.

For `CC/C=C\C/C=C\C/C=C\CCCCCCCC(=O)NCC(=O)O` [α-linolenic acid-glycine-OH, Linolenic Acid-Glycine-OH], the “% INHIBITION of P. falciparum” value in assay [1] is 81.5%. Moreover, the inhibition at 20 µM in assay [2] (All PUFA at 20μM, PHA-induced) turned out to be 29%.

In the case of `CCCCC/C=C\C/C=C\C/C=C\CCCCC(=O)N[C@@H](CC(=O)O)C(=O)O` [γ-linolenic acid-aspartic acid-OH, Gamma Linolenic-Aspartic Acid-OH], in assay [2] (All PUFA at 20μM, PHA-induced), the inhibition at 20 µM came out at 7.3%.

With `CCCCC/C=C\C/C=C\C/C=C\CCCCC(=O)NCC(=O)O` [γ-linolenic acid-glycine-OH, Gamma Linolenic Acid-Glycine-OH], in assay [2] (All PUFA at 20μM, PHA-induced), the inhibition at 20 µM amounted to 15.6%.
